Key:
Assay in all cases: CellTiter-Glo in vitro cell proliferation assay, Example 8
Format in all cases: cell-based, Human
A2780 cells = details: A2780, Ovarian; read-out: Mean IC50
Description: (§1) In this Example, in vitro cell proliferation assays were performed using: (1) Human Myeloma tumor cell lines; (2) Human Lymphoma tumor cell lines; (3) Solid Human tumor cell lines; and (4) Parental, Lenalidomide resistant and Bortezomib resistant Jeko-1 Mantle cell Lymphoma tumor cell lines. The compounds tested were three diharmaline compounds, namely the 518B562 (or simply 562), 560, and 561 compounds. In addition, a monoharmaline product designated as 518F014 was also tested. This monoharmaline product had the following structure:
(§2) Each proliferation assay was carried out as follows. The test cells were plated in growth media using a 384-well microtiter plate at 50 μL volume. The cells were incubated for 24 hours at 37° C. in a humidified incubator. After 24 hours of incubation, the test compounds were added to the test wells in DSMO solvent, at concentrations ranging from 0.0075-100 μM. Control wells received equal volumes of DSMO, without compound. Following drugging, the cells were incubated for 72 hours at 37° C. in a humidified incubator. After this exposure, 100 μL of a 1:1 mixture of sterile water and CellTiter-Glo® reagent (Promega) was added to each well. The plates were then incubated for 60 minutes at room temperature, followed by recording the luminescence value of each well using a luminometer as a measure of cell proliferation.

A2780CP cells = details: Ovarian, read-out: Mean IC50
Description: as §1, §2

A498 cells = details: A498, RCC; read-out: Mean IC50
Description: as §1, §2

AN3CA cells = details: Endometrial, read-out: Mean IC50
Description: as §1, §2

ASPC-1 cells = details: ASPC-1, Pancreatic; read-out: Mean IC50
Description: as §1, §2

BxPC-3 cells = details: BxPC-3, Pancreatic; read-out: Mean IC50
Description: as §1, §2

DOHH-2 cells = details: DoHH-2, GCB-DLBCL; read-out: Mean IC50
Description: as §1, §2

FaDu cells = details: H&N - SC, read-out: Mean IC50
Description: as §1, §2

H1650 (EGFR mut) cells = details: NSCLC, read-out: Mean IC50
Description: as §1, §2

H1975 (EGFR mut) cells = details: NSCLC, read-out: Mean IC50
Description: as §1, §2

HCC70 cells = details: HCC70, TNBC; read-out: Mean IC50
Description: as §1, §2

HEC-1a cells = details: Endometrial, read-out: Mean IC50
Description: as §1, §2

JIM1 cells = details: JIM1, HMCL; read-out: Mean IC50
Description: as §1, §2

KMM-1 cells = details: KMM-1, HMCL-A; read-out: Mean IC50
Description: as §1, §2

KMS-34 cells = details: KMS-34, HMCL-B; read-out: Mean IC50
Description: as §1, §2

L363 cells = details: L363, PCL/MM; read-out: Mean IC50
Description: as §1, §2

MDA-MB-231 cells = details: MDA-MB-231, TNBC; read-out: Mean IC50
Description: as §1, §2

MDA-MB-468 cells = details: MDA-MB-468, TNBC; read-out: Mean IC50
Description: as §1, §2

MIA PaCa-2 cells = details: MIA PaCa-2, Pancreatic; read-out: Mean IC50
Description: as §1, §2

MOLP-8 cells = details: MOLP-8, MM IgD; read-out: Mean IC50
Description: as §1, §2

OCI-LY3 cells = details: OCI-LY3, ABC-DLBCL; read-out: Mean IC50
Description: as §1, §2

SiHA cells = details: Cervical - SC, read-out: Mean IC50
Description: as §1, §2

RPMI-8226 cells = details: RPMI-8226, HMM
Description: as §2
In this example, different cell lines were subjected to in vitro cell proliferation assays as described in Example 8. In particular, the cell lines are identified in the following Table 17, and the tissue types were: Pancreatic; Endometrial; Triple-Negative Breast Cancer (TNBC); Non-Small-Cell Lung Carcinoma (NSCLC); Ovarian; Renal Cell Carcinoma (RCC); Cervical-Squamous Cell; […] (H&N-Squamous Cell); Germinal Center B Cell-Like Novo Diffuse Large B-Cell Lymphoma (GCB-DLBCL); Activated B-Cell—Diffuse Large B Cell Lymphoma (ABC-DLBCL); Human Myeloma; Human Myeloma Cell Line Lymphocyte-Like; Human Myeloma Cell Line Lymphocyte-Like Myeloma Pleural Effusion Infiltration; Human Multiple Myeloma; Plasma Cell Leukemia/Multiple Myeloma Epstein-Barr Nuclear Antigen-Negative (EBNA-Negative) and to Express mRNA for Proto-Oncogene B-Cell Lymphoma 2 (BCL2); Multiple Myeloma from Peripheral Blood Type IgD Lmabda.

| SMILES | IC50 (A2780 cells) [µM] | IC50 (A2780CP cells) [µM] | IC50 (A498 cells) [µM] | IC50 (AN3CA cells) [µM] | IC50 (ASPC-1 cells) [µM] | IC50 (BxPC-3 cells) [µM] | IC50 (DOHH-2 cells) [µM] | IC50 (FaDu cells) [µM] | IC50 (H1650 (EGFR mut) cells) [µM] | IC50 (H1975 (EGFR mut) cells) [µM] | IC50 (HCC70 cells) [µM] | IC50 (HEC-1a cells) [µM] | IC50 (JIM1 cells) [µM] | IC50 (KMM-1 cells) [µM] | IC50 (KMS-34 cells) [µM] | IC50 (L363 cells) [µM] | IC50 (MDA-MB-231 cells) [µM] | IC50 (MDA-MB-468 cells) [µM] | IC50 (MIA PaCa-2 cells) [µM] | IC50 (MOLP-8 cells) [µM] | further results |
| --- | --- | --- | --- | --- | --- | --- | --- | --- | --- | --- | --- | --- | --- | --- | --- | --- | --- | --- | --- | --- | --- |
| COc1ccc2c3c([nH]c2c1)C(CC(CC1=NCCc2c1[nH]c1cc(OC)ccc21)c1ccc(OC)c(O)c1)=NCC3 [compound 7] | 33 | 33.7 | 29.3 | 11.5 | 40.9 | 12.3 | 6.48 | 13.7 | 64.2 | 60.8 | 23.4 | 71.1 | 14.4 | 19.9 | 11.1 | 11.8 | 31.7 | 11.2 | 16.2 | 11.7 | IC50 (OCI-LY3 cells): 11.4 µM; IC50 (SiHA cells): 48.1 µM; IC50 (RPMI-8226 cells): 11.8 µM |
| COc1ccc2c3c([nH]c2c1)C(CC(CC1=NCCc2c1[nH]c1cc(OC)ccc21)c1cc(O)c(OC)c(OC)c1)=NCC3 [compound 11] | 18.3 | 24.9 | 51.3 | 8.74 | 21.9 | 11.5 | 4.32 | 16.4 | 26.2 | 19.5 | 27.2 | 36.3 | 11.5 | 12.1 | 11.1 | 11.6 | 13.5 | 12.2 | 11.7 | 10.8 | IC50 (OCI-LY3 cells): 11.3 µM; IC50 (SiHA cells): 15.9 µM; IC50 (RPMI-8226 cells): 10.1 µM |
| COc1ccc2c3c([nH]c2c1)C(CC(CC1=NCCc2c1[nH]c1cc(OC)ccc21)c1cc(Br)c(O)c(OC)c1)=NCC3 [compound 12] | 21.2 | 20.5 | 40.9 | 5.36 | 31.3 | 11.3 | 3.72 | 18.2 | 21.6 | 13 | 22 | 24.8 | 6.04 | 10.6 | 7.19 | 10.9 | 11.3 | 11.6 | 11.7 | 3.88 | IC50 (OCI-LY3 cells): 11.3 µM; IC50 (SiHA cells): 50.2 µM; IC50 (RPMI-8226 cells): 10.2 µM |
| COc1ccc2c3c([nH]c2c1)C(CC(CC1=NCCc2c1[nH]c1cc(OC)ccc21)c1ccc(OC)c(O)c1I)=NCC3 [compound 14] | 21.2 | 24.3 | 54.7 | 9.05 | 53.1 | 21 | 7.9 | 19.2 | 25.4 | 33.6 | 33.3 | 28.7 | 17.9 | 23.9 | 14.6 | 23.4 | 32.4 | 16.9 | 22.2 | 10.1 | IC50 (OCI-LY3 cells): 15.4 µM; IC50 (SiHA cells): 51.9 µM; IC50 (RPMI-8226 cells): 7.53 µM |
| COc1cccc(C(CC2=NCCc3c2[nH]c2cc(OC)ccc32)CC2=NCCc3c2[nH]c2cc(OC)ccc32)c1 [compound 15] | 8.45 | 7.63 | 15.2 | 3.45 | 5.45 | 4.22 | 5.05 | 6.62 | 9.6 | 12.1 | 11.7 | 13.1 | 6.26 | 7.36 | 3.5 | 6.58 | 6.77 | 6.7 | 3.63 | 3.19 | IC50 (OCI-LY3 cells): 6.32 µM; IC50 (SiHA cells): 12.3 µM; IC50 (RPMI-8226 cells): 2.95 µM |
| COc1ccc2c3c([nH]c2c1)C(CC(CC1=NCCc2c1[nH]c1cc(OC)ccc21)c1ccc(F)c(Oc2ccccc2)c1)=NCC3 [compound 19] | 22.1 | 27.5 | 89.5 | 22.8 | 45.5 | 36.2 | 10.2 | 44.4 | 56.8 | 55 | 50.9 | 45 | 42.9 | 25.6 | 31.2 | 36.8 | 41.8 | 48.9 | 36.6 | 9.81 | IC50 (OCI-LY3 cells): 20.6 µM; IC50 (SiHA cells): 75.9 µM; IC50 (RPMI-8226 cells): 10.6 µM |
